In brackets after ≈: the same amount, converted by molar mass.
What was measured:
L. plantarum 299V = experiment: Microdilution MIC/MMC with resazurin; assay type: cell-based, Lactobacillus plantarum; conditions: for MIC: Lactiplantibacillus plantarum
Method: The antimicrobial activity of PCH-1 and PCH-2 was tested against 13 microorganisms. The experiment included four standard strains, Staphylococcus aureus ATCC 6538, Bacillus subtilis ATCC 6633, Proteus mirabilis ATCC 12453, and Pseudomonas aeruginosa ATCC 27853; five isolates, Staphylococcus aureus, Escherichia coli, Salmonella enterica, Klebsiella pneumoniae, and Bacillus subtilis; and one probiotic strain Lactobacillus plantarum 299V. Additionally, three fungal strains were tested, including one standard strain, Candida albicans ATCC 10231, and two isolates, Saccharomyces cerevisiae and probiotic strain Saccharomyces boulardii.
The bacterial suspensions were prepared using the direct colony method. The turbidity of the initial suspension was adjusted using a densitometer (DEN-1, BioSan, Latvia). When adjusted to the turbidity of the 0.5 McFarland standard, the bacterial suspension contains approximately 10^8 colony-forming units (CFU)/mL, and the yeast suspension contains approximately 10^6 CFU/mL. For the experiment, the initial suspension was further diluted at a 1:100 ratio in a sterile 0.85% saline solution.
The antimicrobial activity was assessed by determining the minimum inhibitory concentrations (MICs) and minimum microbicidal concentrations (MMCs) using the microdilution plate method with resazurin (Alfa Aesar GmbH & Co. (KG, Karlsruhe, Germany)). For this, 96-well plates were prepared by adding 100 μL of Mueller Hinton broth (Torlak, Belgrade, Serbia) for bacterial tests and Sabouraud broth (Torlak, Belgrade, Serbia) for yeast into each well. The tested PCH-1 and PCH-2 were dissolved in 10% dimethyl sulfoxide (DMSO) and then diluted into sterile distilled water. A 100 μL sample from the stock solution of the tested compound was then added to the first row of the plate, followed by twofold serial dilutions using a multichannel pipette. This produced a concentration range from 2.69 to 0.0025 µmol/L. The method is described in detail in the reported paper.
Each test setup included growth control and sterility control. […] Minimum microbicidal concentrations (MMCs) were determined as described in detail in the reported paper.

[1] = target: T1, Soybean lipoxygenase (Type I-B) (Glycine max, UniProt P08170); experiment: In vitro LOX inhibition assay; assay type: biochemical; conditions: for inhibition at 25 µM / inhibition at 50 µM / inhibition at 100 µM: read-out: Anti-LOX Activity (%); for IC50: sodium linoleate substrate, tris buffer pH 9, read-out: IC50 (µM), in vitro lipoxygenase inhibitory activity
T1 construct: purchased Merck (KGaA, Darmstadt, Germany)
T1 sequence (P08170 1-839): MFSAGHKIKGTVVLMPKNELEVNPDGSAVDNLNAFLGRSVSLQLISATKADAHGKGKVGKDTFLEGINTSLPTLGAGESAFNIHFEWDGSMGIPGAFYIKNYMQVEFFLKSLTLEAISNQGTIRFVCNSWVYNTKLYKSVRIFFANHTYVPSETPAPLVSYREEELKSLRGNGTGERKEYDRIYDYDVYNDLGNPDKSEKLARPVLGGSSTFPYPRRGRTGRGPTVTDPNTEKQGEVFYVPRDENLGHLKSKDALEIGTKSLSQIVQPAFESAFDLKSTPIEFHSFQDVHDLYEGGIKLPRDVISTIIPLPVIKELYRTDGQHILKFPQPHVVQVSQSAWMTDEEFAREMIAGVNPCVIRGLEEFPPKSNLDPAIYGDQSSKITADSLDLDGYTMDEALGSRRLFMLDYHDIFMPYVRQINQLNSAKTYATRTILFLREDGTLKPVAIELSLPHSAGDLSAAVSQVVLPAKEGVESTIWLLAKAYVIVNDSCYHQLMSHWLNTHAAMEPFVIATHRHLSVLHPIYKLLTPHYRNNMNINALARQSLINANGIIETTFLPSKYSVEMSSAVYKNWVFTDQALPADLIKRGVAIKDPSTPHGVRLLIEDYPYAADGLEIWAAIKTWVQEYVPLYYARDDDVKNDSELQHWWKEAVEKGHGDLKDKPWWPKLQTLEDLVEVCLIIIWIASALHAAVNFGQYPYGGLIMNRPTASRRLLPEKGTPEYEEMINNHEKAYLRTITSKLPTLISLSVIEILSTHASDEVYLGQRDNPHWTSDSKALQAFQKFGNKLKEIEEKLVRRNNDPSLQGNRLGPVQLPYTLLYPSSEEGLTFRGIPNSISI
From the text: Soybean lipoxygenase (Type I-B) is a very often used enzyme for the investigation of anti-inflammatory properties of compounds [38]. The LOX inhibition assay measures the rate of oxidation of linoleic acid by lipoxygenase, which results in the formation of a colorless product that can be detected spectrophotometrically. This enzyme catalyzes the conversion of linoleic acid into hydroperoxy fatty acids and results in increased absorbance at 234 nm. The tested compounds dissolved in DMSO were incubated at room temperature with sodium linoleate (3 mM in tris buffer pH = 9) and enzyme solution (5 × 10^3 units/mL in saline). The activity for each tested compound was presented as IC50 value ± standard deviation (SD) of three independent measurements.

S. aureus ATCC 25923 = experiment: Microdilution MIC/MMC with resazurin; assay type: cell-based, Staphylococcus aureus; conditions: for MIC: Staphylococcus aureus, ATCC25923

Compound: C/C(NNC(=O)c1ccc(O)c(O)c1O)=C1\C(=O)Oc2ccccc2C1=O [PCH-1, (E)-N′-(1-(2,4-dioxochroman-3-ylidene)ethyl)-2,3,4-trihydroxybenzohydrazide]
- MMC (L. plantarum 299V): 2.70 mM
- MIC (L. plantarum 299V): 2700 µM (≈ 1000 µg/mL)
- inhibition at 25 µM [1]: 32.8 ± 2.4%
- inhibition at 30 µM [1]: 36.8 ± 2.4%
- inhibition at 40 µM [1]: 51.4 ± 1.8%
- inhibition at 50 µM [1]: 65.1 ± 2%
- inhibition at 60 µM ([1]; 60 µM): 84.9 ± 0.1%
- inhibition at 100 µM [1]: 96.1 ± 0.7%
- IC50 [1]: 38.1 µM
- MMC (S. aureus ATCC 25923): 0.17 mM
- MIC (S. aureus ATCC 25923): 170 µM (≈ 63 µg/mL)

Compound: C/C(NNC(=O)c1cc(O)c(O)c(O)c1)=C1\C(=O)Oc2ccccc2C1=O [PCH-2, (E)-N′-(1-(2,4-dioxochroman-3-ylidene)ethyl)-3,4,5-trihydroxybenzohydrazide]
- MMC (L. plantarum 299V): 0.67 mM
- MIC (L. plantarum 299V): 670 µM (≈ 248 µg/mL)
- inhibition at 20 µM ([1]; 20 µM): 20.7 ± 2.7%
- inhibition at 25 µM [1]: 38.9 ± 3.1%
- inhibition at 30 µM [1]: 41.9 ± 1.4%
- inhibition at 40 µM [1]: 67 ± 0.9%
- inhibition at 50 µM [1]: 71.7 ± 2.2%
- inhibition at 100 µM [1]: 95.2 ± 1%
- IC50 [1]: 34.1 µM
- MMC (S. aureus ATCC 25923): 0.34 mM
- MIC (S. aureus ATCC 25923): 80 µM (≈ 29.6 µg/mL)
